Patent publication US4067997A, “Synergistic microbecidal composition and method” (priority 1976, dated 1978)
In brackets after ≈: the same amount, converted by molar mass. Where two headings read alike, the source gives them in different places.

What was measured:
gram-negative organisms = test: Inhibition, broth dilution (Example I); format: cell-based
Description: (§1) In order to establish comparative bactericidal and fungicidal results with homologous fatty acids, a series of experiments was performed with thirty straight-chain fatty acids and derivatives thereof. Eight different gram-negative and twelve different gram-positive organisms, representing a very broad spectrum of organisms, were used in these experiments including the fungus Candida (a yeast). Additionally, fatty acids were chosen to show the effects of saturation versus unsaturation, in the fatty acid claim. Standard solutions of the fatty acids and their derivatives were prepared by first dissolving the weighed compounds in 1 to 2 ml of 95% ethanol and immediately pouring this solution into 200 ml of Tripticase Soy Broth. These lipid compounds which are insoluble in water and broth precipitated into very small crystals or droplets. The tubes containing the suspension were warmed to approximately 70° C and were then placed in an ultrasonic tank for further solubilization of the lipid derivatives.
(§2) Standard solutions (or suspensions) at 1,000 μg/ml were twofold serially diluted with additional broth to a concentration of 125 μg/ml. A 4-ml amount of each dilution was then quickly, and with constant agitation, dispensed into appropriately labeled screw-capped glass tubes (16 by 125 mm). The tubes were sterilized with steam at 15 psi for 15 minutes. […]

gram-positive organisms = test: Inhibition, broth dilution (Example I); format: cell-based; settings: read-out: Inhibitory concentration
Description: as §1, §2

Group A Strep. = test: MIC of potassium soaps of unsaturated fatty acids (Example III); format: cell-based, Group A β-hemolytic Streptococci; settings: Table 10, Group A Strep.
Aspergillus niger = test: MIC, agar dilution method (Example XVI); format: cell-based
Description: (§3) In a manner similar to that described in Example V, the effectiveness of certain food-grade microbecides are compared with mono-esters in an agar dilution method. The very favorable results may be noted from Table 19.

Bacillus subtilis = test: MIC, agar dilution method (Example XVI); format: cell-based
Description: as §3

Canadida albicans = test: MIC, agar dilution method (Example XVI); format: cell-based
Description: as §3

Escherichia coli = test: MIC, agar dilution method (Example XVI); format: cell-based
Description: as §3

Pseudomonas aeruginosa = test: MIC, agar dilution method (Example XVI); format: cell-based
Description: as §3

Staphylococcus aureus = test: MIC, agar dilution method (Example XVI); format: cell-based
Description: as §3

Streptococcus Group A = test: MIC, broth dilution (Examples I/II); format: cell-based, beta-hemolytic streptococci Group A; settings: Table 7, Strep. Grp. A
Description: as §1
(§4) Standard solutions (or suspensions) at 1,000 μg/ml were twofold serially diluted with additional broth to a concentration of 125 μg/ml. A 4-ml amount of each dilution was then quickly, and with constant agitation, dispensed into appropriately labeled screw-capped glass tubes (16 by 125 mm). The tubes were sterilized with steam at 15 psi for 15 minutes. After sterilization, all tubes were cooled and incubated overnight at 35° C to insure sterility.
(§5) All compounds were compared on a molar (micromoles/milliliter) rather than on a mass basis. In the following lists of organisms used, those followed by a parenthetical number are registered with the American Type Culture Collection (ATCC); the remainder were isolates from Providence Hospital or Northland Laboratory.
(§6) One drop (0.04 ± 0.01 ml) of an 18-hr broth culture containing 10^7 and 10^9 organisms/ml was added to each dilution of the test compound, as well as to a tube of plain broth which served as the positive control. After inoculation, the contents of each tube were well mixed, and the tubes were incubated at 35° C in a 5% carbon dioxide + […] atmosphere.
(§7) The MIC is defined as the lowest concentration of compound at which no […] evidence of growth was observed when turbidity of the inoculated broth dilutions was compared with control tubes. […] Only a one-tube difference between the bactericidal and bacteriostatic concentrations was normally observed.
(§8) Standard solutions (1000 μg/ml) of three fatty acids and polyglycerol esters thereof were prepared as described in Example I. Also sucrose esters were prepared by transferring the weighed compounds (0.2 gm. dissolved in 1 ml absolute methanol) into 200 ml of sterile Trypticase Soy Broth (TSB). These standard solutions (1000 μg/ml) were twofold serially diluted with additional sterile broth to a concentration of 125 μg/ml. A 3.8 aliquot of each dilution was asceptically delivered into sterile screw-capped culture tubes. All tubes were incubated overnight at 36° C to insure sterility. The microorganisms used in this example were the same as those used in Example I.
(§9) The inoculum, 0.05 ml of an 13-24 hour TSB culture (approximately 10^9 organisms/ml) was asceptically delivered into all dilutions of the compounds, mixed well, and incubated at 36° C. A tube of inoculated broth without the compound served as a positive control and an uninoculated set of dilutions incubated along with the test dilutions, served as a negative control.
(§10) In those cases in which the test compound itself caused turbidity, an aliquot (0.015 ml) of the mixed broth was inoculated onto an agar plate and incubated at 36° C for examination, as described in Example I. The control procedure of Example I was also repeated. The lauric, capric, and oleic acids were used as internal controls and for comparison to Example I. The minimal inhibitory concentrations (μmole/ml) for the compounds studied are given in Tables 7 and 8.

[1] = test system: Streptococcus β-hemolytic Non-A; test: MIC, broth dilution (Examples I/II); format: cell-based, beta-hemolytic streptococci non-group A; settings: Table 7, Strep. β-hemo. Non-A
Description: as §1, §4, §5, §6, §7, §8, §9, §10

Corynebacteria = test: MIC, broth dilution (Examples I/II); format: cell-based, Corynebacterium sp. (10700); settings: Table 7, Cornebacteria
Description: as §1, §4, §5, §6, §7, §8, §9, §10

Micrococci = test: MIC, broth dilution (Examples I/II); format: cell-based, Micrococcus sp.; settings: Table 7, Micrococci
Description: as §1, §4, §5, §6, §7, §8, §9, §10

S. epidermidis = test: MIC, broth dilution (Examples I/II); format: cell-based; settings: Table 7, Staph epider.; > = no inhibition, max. tested
Description: as §1, §4, §5, §6, §7, §8, §9, §10

Streptococcus Group D = test: MIC, broth dilution (Examples I/II); format: cell-based; settings: Table 7, Strep. Grp. D; > = no inhibition, max. tested
Description: as §1, §4, §5, §6, §7, §8, §9, §10

Sarcina = test: MIC, broth dilution (Examples I/II); format: cell-based, Sarcina lutea (9431); settings: Table 7, Sarcina; > = no inhibition, max. tested
Description: as §1, §4, §5, §6, §7, §8, §9, §10

[2] = Aspergillus niger, Table 19, agar dilution, read-out: MIC
[3] = Bacillus subtilis, Table 19, agar dilution, read-out: MIC
[4] = Table 19, agar dilution, read-out: MIC
[5] = Escherichia coli, Table 19, agar dilution, read-out: MIC
[6] = Pseudomonas aeruginosa, Table 19, agar dilution, read-out: MIC
[7] = Staphylococcus aureus, Table 19, agar dilution, read-out: MIC

CCCCCCCCCCCCOS(=O)(=O)[O-].[Na+] [sodium lauryl sulfate]
Inhibition in words (gram-negative organisms): non-inhibitory
MIC (gram-positive organisms): 3470 µM

CCCCCC=CCCCCC=CCCCCC(=O)O [.increment.^6 12]
MIC (Group A Strep.): 10 µM

CCCCCC=CCCCCCC=CCCCC(=O)O [.increment.^5 12]
MIC (Group A Strep.): 20 µM

COC(=O)c1ccc(O)cc1 [Methyl paraben]
MIC (Aspergillus niger; [2]): 2500 µg/mL (≈ 16.4 mM)
MIC (Bacillus subtilis; [3]): 5000 µg/mL (≈ 32.9 mM)
MIC (Canadida albicans; [4]): 2500 µg/mL (≈ 16.4 mM)
MIC (Escherichia coli; [5]): 2500 µg/mL (≈ 16.4 mM)
MIC (Pseudomonas aeruginosa; [6]): 5000 µg/mL (≈ 32.9 mM)
MIC (Staphylococcus aureus; [7]): 5000 µg/mL (≈ 32.9 mM)

Triglycerol monolaurate
MIC (Streptococcus Group A): 290 µM
MIC [1]: 590 µM
MIC (Corynebacteria): 240 µM
MIC (Micrococci): 290 µM
MIC (S. epidermidis): > 2360 µM
MIC (Streptococcus Group D): > 2360 µM
MIC (Sarcina): 1180 µM

CCCCCC/C=C\CCCCCCCC(=O)[O-].[Na+] [Palmitoleic acid sodium salt]
MIC (Aspergillus niger; Aspergillus niger): > 1000 µg/mL
MIC (Bacillus subtilis; Bacillus subtilis): 500 µg/mL
MIC (Canadida albicans): > 1000 µg/mL
MIC (Escherichia coli; Escherichia coli): > 1000 µg/mL
MIC (Pseudomonas aeruginosa; Pseudomonas aeruginosa): > 1000 µg/mL
MIC (Staphylococcus aureus; Staphylococcus aureus): 15.6 µg/mL

CCCCC/C=C/CC/C=C/CCCCCCC(=O)O [.increment.^8 12]
MIC (Group A Strep.): 20 µM

Oc1ccccc1 [Phenol]
MIC (Aspergillus niger; Aspergillus niger): 1250 µg/mL (≈ 13.3 mM)
MIC (Bacillus subtilis; Bacillus subtilis): 1250 µg/mL (≈ 13.3 mM)
MIC (Canadida albicans): 1250 to 2500 µg/mL (≈ 13.3 to 26.6 mM)
MIC (Escherichia coli; Escherichia coli): 2500 µg/mL (≈ 26.6 mM)
MIC (Pseudomonas aeruginosa; Pseudomonas aeruginosa): 1250 µg/mL (≈ 13.3 mM)
MIC (Staphylococcus aureus; Staphylococcus aureus): 1250 to 2500 µg/mL (≈ 13.3 to 26.6 mM)

C[CH2][Hg][S]c1ccccc1C(=O)[O-].[Na+] [Thimerosal]
MIC (Aspergillus niger; Table 19, agar dilution): 0.10 µg/mL
MIC (Bacillus subtilis; Table 19, agar dilution): 0.39 µg/mL
MIC (Canadida albicans; Table 19, agar dilution): 0.10 to 0.20 µg/mL
MIC (Escherichia coli; Table 19, agar dilution): 1.60 µg/mL
MIC (Pseudomonas aeruginosa; Table 19, agar dilution): 6.30 to 12.50 µg/mL
MIC (Staphylococcus aureus; Table 19, agar dilution): 0.78 µg/mL

C/C=C/C=C/C(=O)O [Sorbic acid]
MIC (Aspergillus niger; [2]): 1000 µg/mL (≈ 8.92 mM)
MIC (Bacillus subtilis; [3]): 1000 µg/mL (≈ 8.92 mM)
MIC (Canadida albicans; [4]): 1000 µg/mL (≈ 8.92 mM)
MIC (Escherichia coli; [5]): 1000 µg/mL (≈ 8.92 mM)
MIC (Pseudomonas aeruginosa; [6]): 2000 µg/mL (≈ 17.8 mM)
MIC (Staphylococcus aureus; [7]): 1000 µg/mL (≈ 8.92 mM)

Hexaglycerol monolaurate
MIC (Streptococcus Group A): 190 µM
MIC [1]: 380 µM
MIC (Corynebacteria): 380 µM
MIC (Micrococci): 380 µM
MIC (S. epidermidis): > 1520 µM
MIC (Streptococcus Group D): > 1520 µM
MIC (Sarcina): > 1520 µM
